Reference: ChEMBL document CHEMBL5236604, “Cage hydrocarbons as linkers in dimeric drug design: Case studies with trimethoprim and tedizolid” (2023)
≈ marks a conversion by molar mass, not a printed value. Calls of active or inactive are those of the source. The calls are words filed in the database; no cut-off is given here.

Columns and labels:
Staphylococcus aureus [1] = test: Antibacterial activity against trimethoprim sensitive Staphylococcus aureus assessed as inhibition of bacterial growth; assay type: functional
Staphylococcus aureus [2] = test: Antibacterial activity against trimethoprim resistant Staphylococcus aureus assessed as inhibition of bacterial growth; assay type: functional
Enterococcus faecium [3] = test: Antibacterial activity against trimethoprim sensitive Enterococcus faecium assessed as inhibition of bacterial growth; assay type: functional
Enterococcus faecium [4] = test: Antibacterial activity against trimethoprim resistant Enterococcus faecium assessed as inhibition of bacterial growth; assay type: functional
Acinetobacter baumannii [5] = test: Antibacterial activity against trimethoprim sensitive Acinetobacter baumannii assessed as inhibition of bacterial growth; assay type: functional
Acinetobacter baumannii [6] = test: Antibacterial activity against trimethoprim resistant Acinetobacter baumannii assessed as inhibition of bacterial growth; assay type: functional
Staphylococcus aureus [7] = test: Antibacterial activity against Staphylococcus aureus; assay type: functional, organism-based
Enterococcus faecium [8] = test: Antibacterial activity against Enterococcus faecium; assay type: functional, organism-based

SMILES | MIC (Staphylococcus aureus [1]) [µM] | MIC (Staphylococcus aureus [2]) [µM] | MIC (Enterococcus faecium [3]) [µM] | MIC (Enterococcus faecium [4]) [µM] | MIC (Acinetobacter baumannii [5]) [µM] | MIC (Acinetobacter baumannii [6]) [µM] | Activity (Staphylococcus aureus [7]) | Activity (Enterococcus faecium [8])
COc1cc(Cc2cnc(N)nc2N)cc(OC)c1OC(=O)C12CC3CC(C1)CC(C(=O)Oc1c(OC)cc(Cc4cnc(N)nc4N)cc1OC)(C3)C2 | 12.5 (≈ 9.26 µg/mL) | > 25 | 6.25 (≈ 4.63 µg/mL) | 50 (≈ 37 µg/mL) | > 100 |  |  | 
COc1cc(Cc2cnc(N)nc2N)cc(OC)c1OC [TRIMETHOPRIM] | 6.25 (≈ 1.81 µg/mL) | 12.5 (≈ 3.63 µg/mL) | 0.78 (≈ 0.226 µg/mL) | 100 (≈ 29 µg/mL) | 6.25 (≈ 1.81 µg/mL) | > 400 |  | 
COc1cc(Cc2cnc(N)nc2N)cc(OC)c1OC(=O)C12CC(C(=O)Oc3c(OC)cc(Cc4cnc(N)nc4N)cc3OC)(C1)C2 | 25 (≈ 16.8 µg/mL) | > 100 | 1.56 (≈ 1.05 µg/mL) | > 50 | > 100 |  |  | 
COc1cc(Cc2cnc(N)nc2N)cc(OC)c1OC(=O)C12CCC(C(=O)Oc3c(OC)cc(Cc4cnc(N)nc4N)cc3OC)(CC1)CC2 | > 100 |  | 3.12 (≈ 2.23 µg/mL) | > 100 | > 100 |  |  | 
COc1cc(Cc2cnc(N)nc2N)cc(OC)c1O [4-HYDROXYTRIMETHOPRIM] | 12.5 (≈ 3.45 µg/mL) | > 25 | 3.12 (≈ 0.863 µg/mL) | 60 (≈ 16.6 µg/mL) | > 100 |  |  | 
CC(C)(C)[Si](C)(C)OC[C@H]1CN(c2ccc(O)c(F)c2)C(=O)O1 |  |  |  |  |  |  | inactive | inactive
